In brackets after ≈: the same amount, converted by molar mass.
Experiments:
UM‐UC‐14 [FGFR3_S249C] = assay: In vitro cell growth assay; type: cell-based; details: Homo sapiens, UMUC14, 120 h, read-out: IC50, anti-proliferative effect
[1] = test system: adriamycin‐resistant UM‐UC‐14 cell line; assay: In vitro cell growth assay, adriamycin-resistant UM-UC-14
[2] = test system: urothelial cancer harboring FGFR3 gene alternation; details: 25 evaluable urothelial cancer patients with FGFR3 gene alternation; cited from earlier work
[3] = cited from earlier work; for T 1/2: clinical information; for hyperphosphatemia: clinical
RT‐112 [FGFR3‐TACC3] = assay: In vitro cell growth assay; type: cell-based; details: Homo sapiens, RT-112, 120 h, read-out: IC50, proliferation
[4] = test system: tumors harboring FGFR3‐TACC3 fusion genes; details: patients with tumors harboring FGFR3-TACC3 fusion genes; cited from earlier work
[5] = test system: c‐MYC expression in lung cancer cell lines harboring FGFR1 overexpression; details: cited from earlier work

In the case of `COc1cccc2c1C(=O)c1c(O)c3c(c(O)c1C2=O)C[C@@](O)(C(=O)CO)C[C@@H]3O[C@H]1C[C@H](N)[C@H](O)[C@H](C)O1` [Adriamycin], the IC50 (UM‐UC‐14 [FGFR3_S249C]) is reported as 6.7 ng/mL (≈ 0.0123 µM), the IC50 ([1]; Homo sapiens, UMUC14, 120 h, read-out: IC50, anti-proliferative effect) is reported as 58 ng/mL (≈ 0.107 µM) and the “fold weaker anti-proliferative effect in resistant vs parental cell line” value ([1]; adriamycin-resistant UM-UC-14 vs parental UM-UC-14) is reported as 8.7 folds.
In the case of `CCN1CCN(c2ccc(Nc3cc(N(C)C(=O)Nc4c(Cl)c(OC)cc(OC)c4Cl)ncn3)cc2)CC1` [BGJ398, 3‐(2,6‐dichloro‐3,5‐dimethoxy‐phenyl)‐1‐{6‐[4‐(4‐ethyl‐piperazin‐1‐yl)‐phenylamino]‐pyrimidin‐4‐yl}‐1‐methyl‐urea], the overall response rate [2] is given as 36%, the “T 1/2” value [3] is given as “quite large” and the hyperphosphatemia [3] is given as “commonly observed”.
Work on `Nc1ccn([C@@H]2O[C@H](CO)[C@@H](O)C2(F)F)c(=O)n1` [Gemcitabine] yielded an IC50 (RT‐112 [FGFR3‐TACC3]) of 0.95 ng/mL (≈ 0.00361 µM).
In the case of `COc1cc(OC)cc(N(CCNC(C)C)c2ccc3ncc(-c4cnn(C)c4)nc3c2)c1` [JNJ‐42756493], the partial responses [4] is listed as “three out of four partial responses”, the “T 1/2” value [3] is listed as “quite large” and the hyperphosphatemia [3] is listed as “commonly observed”.
In the case of `CCN(CC)CCCCNc1ncc2cc(-c3cc(OC)cc(OC)c3)c(NC(=O)NC(C)(C)C)nc2n1` [PD173074, 1‐tert‐butyl‐3‐[6‐(3,5‐dimethoxy‐phenyl)‐2‐(4‐diethylamino‐butylamino)‐pyrido[2,3‐d]pyrimidin‐7‐yl]‐urea], the c-MYC expression [5] is listed as “decreased”.

Source: PMC5329164 (Cancer Science, 2017)
